Data: patent US8785488B2 (Exelixis Patent Company LLC, priority 2009, dated 2014)

Experiments:
human TGR5 (h-TGR5) = molecular target: T1, human TGR5 (h-TGR5) (Homo sapiens, UniProt Q8TDU6); test: TGR5/CRE-Luciferiase Assay (HEK 293 hTGR5/CRE-Luc cells); format: cell-based; settings: h-TGR5 CRE-Luc EC50, Table 1; read-out: CRE-Luc (EC50)
T1 construct: expressed in transfected cells
T1 sequence (Q8TDU6 1-330): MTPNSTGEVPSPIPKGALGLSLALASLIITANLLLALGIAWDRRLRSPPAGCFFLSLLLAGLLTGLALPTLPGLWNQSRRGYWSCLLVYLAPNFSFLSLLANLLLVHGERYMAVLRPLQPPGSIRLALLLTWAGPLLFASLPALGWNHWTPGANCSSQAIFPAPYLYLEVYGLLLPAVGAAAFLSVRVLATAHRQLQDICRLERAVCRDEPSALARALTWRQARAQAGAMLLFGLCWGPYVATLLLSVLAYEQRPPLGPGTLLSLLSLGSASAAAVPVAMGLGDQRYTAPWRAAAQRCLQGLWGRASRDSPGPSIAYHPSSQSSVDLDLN
Summary of the method: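 HEK293 cells stably carrying hTGR5 and a CRE-luciferase reporter were exposed to serially diluted compounds (diluted in DMEM with 5% DMSO) for 6 h. Cells were then lysed in luciferase buffer, luminescence was read, and EC50 values were derived from dose-response curves.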

h-TGR5 = molecular target: T2, h-TGR5 (Homo sapiens, UniProt Q8TDU6); test: TGR5 cAMP Assay using Cisbio cAMP Dynamic2 htrf kit (hTGR5CRE-luc HEK 293 cells); format: cell-based; settings: h-TGR5 cAMP EC50, Table 1; read-out: cAMP (EC50)
T2 construct: expressed in transfected cells
T2 sequence (Q8TDU6 1-330): T1 sequence (Q8TDU6 1-330)
Summary of the method: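 […], 4000 hTGR5CRE-luc HEK 293 cells per well, with 0.5 mM IBMX and d2-cAMP, were incubated 30 min at room temperature with compounds in 8-point half-log series, in quadruplicate.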

COc1cc(C(C)(C)c2cnc(SCc3c(F)cc(S(=O)(=O)O)cc3Cl)n2-c2ccc(F)cc2)ccc1Cl [3-chloro-4-({[5-{1-[4-chloro-3-(methyloxy)phenyl]-1-methylethyl}-1-(4-fluorophenyl)-1H-imidazol-2-yl]thio}methyl)-5-fluorobenzenesulfonic acid]
EC50 (human TGR5 (h-TGR5)): < 0.1 µM
EC50 (h-TGR5): < 0.1 µM

COc1cc(C(C)(C)c2cnc(SCc3c(F)cc(C(=O)O)cc3Cl)n2-c2ccc(F)cc2)ccc1Cl [3-chloro-4-({[5-{1-[4-chloro-3-(methyloxy)phenyl]-1-methylethyl}-1-(4-fluorophenyl)-1H-imidazol-2-yl]thio}methyl)-5-fluorobenzoic acid]
EC50 (human TGR5 (h-TGR5)): < 0.1 µM
EC50 (h-TGR5): < 0.1 µM

COc1cc(C(C)(C)c2cnc(SCc3ccc(S(=O)(=O)NC(=O)Nc4nccs4)cc3Cl)n2-c2ccc(F)cc2)ccc1Cl [3-chloro-4-({[5-{1-[4-chloro-3-(methyloxy)phenyl]-1-methylethyl}-1-(4-fluorophenyl)-1H-imidazol-2-yl]thio}methyl)-N-[(1,3-thiazol-2-ylamino)carbonyl]benzenesulfonamide]
EC50 (human TGR5 (h-TGR5)): 0.1 to 1 µM
EC50 (h-TGR5): 0.1 to 1 µM

COc1cc(C(C)(C)c2cnc(SCc3ccc(S(=O)(=O)NC(=O)Nn4cccc4)cc3Cl)n2-c2ccc(F)cc2)ccc1Cl [3-chloro-4-({[5-{1-[4-chloro-3-(methyloxy)phenyl]-1-methylethyl}-1-(4-fluorophenyl)-1H-imidazol-2-yl]thio}methyl)-N-[(1H-pyrrol-1-ylamino)carbonyl]benzenesulfonamide]
EC50 (human TGR5 (h-TGR5)): 0.1 to 1 µM
EC50 (h-TGR5): 0.1 to 1 µM

COc1cc(C(C)(C)c2cnc(SCc3ccc(S(=O)(=O)NC(=O)NC4CCCC4)cc3Cl)n2-c2ccc(F)cc2)ccc1Cl [3-chloro-4-({[5-{1-[4-chloro-3-(methyloxy)phenyl]-1-methylethyl}-1-(4-fluorophenyl)-1H-imidazol-2-yl]thio}methyl)-N-[(cyclopentylamino)carbonyl] benzenesulfonamide]
EC50 (human TGR5 (h-TGR5)): < 0.1 µM
EC50 (h-TGR5): < 0.1 µM

COc1cc(C(C)(C)c2cnc(SCc3ccc(S(=O)(=O)NC(=O)NC4CC4)cc3Cl)n2-c2ccc(F)cc2)ccc1Cl [3-chloro-4-({[5-{1-[4-chloro-3-(methyloxy)phenyl]-1-methylethyl}-1-(4-fluorophenyl)-1H-imidazol-2-yl]thio}methyl)-N-[(cyclopropylamino)carbonyl] benzenesulfonamide]
EC50 (human TGR5 (h-TGR5)): < 0.1 µM
EC50 (h-TGR5): < 0.1 µM

CCNC(=O)NS(=O)(=O)c1ccc(CSc2ncc(C(C)(C)c3ccc(Cl)c(OC)c3)n2-c2ccc(F)cc2)c(Cl)c1 [3-chloro-4-({[5-{1-[4-chloro-3-(methyloxy)phenyl]-1-methylethyl}-1-(4-fluorophenyl)-1H-imidazol-2-yl]thio}methyl)-N-[(ethylamino)carbonyl]benzenesulfonamide]
EC50 (human TGR5 (h-TGR5)): 0.1 to 1 µM
EC50 (h-TGR5): < 0.1 µM

COc1cc(C(C)(C)c2cnc(SCc3ccc(S(=O)(=O)NC(=O)NN4CCOCC4)cc3Cl)n2-c2ccc(F)cc2)ccc1Cl [3-chloro-4-({[5-{1-[4-chloro-3-(methyloxy)phenyl]-1-methylethyl}-1-(4-fluorophenyl)-1H-imidazol-2-yl]thio}methyl)-N-[(morpholin-4-ylamino)carbonyl]benzenesulfonamide]
EC50 (human TGR5 (h-TGR5)): 0.1 to 1 µM
EC50 (h-TGR5): < 0.1 µM

CCCNC(=O)NS(=O)(=O)c1ccc(CSc2ncc(C(C)(C)c3ccc(Cl)c(OC)c3)n2-c2ccc(F)cc2)c(Cl)c1 [3-chloro-4-({[5-{1-[4-chloro-3-(methyloxy)phenyl]-1-methylethyl}-1-(4-fluorophenyl)-1H-imidazol-2-yl]thio}methyl)-N-[(propylamino)carbonyl]benzenesulfonamide]
EC50 (human TGR5 (h-TGR5)): < 0.1 µM
EC50 (h-TGR5): < 0.1 µM

COc1cc(C(C)(C)c2cnc(SCc3ccc(S(=O)(=O)NC(=O)NN4CCCC4)cc3Cl)n2-c2ccc(F)cc2)ccc1Cl [3-chloro-4-({[5-{1-[4-chloro-3-(methyloxy)phenyl]-1-methylethyl}-1-(4-fluorophenyl)-1H-imidazol-2-yl]thio}methyl)-N-[(pyrrolidin-1-ylamino)carbonyl]benzenesulfonamide]
EC50 (human TGR5 (h-TGR5)): 0.1 to 1 µM
EC50 (h-TGR5): 0.1 to 1 µM

COC[C@H]1CCCN1NC(=O)NS(=O)(=O)c1ccc(CSc2ncc(C(C)(C)c3ccc(Cl)c(OC)c3)n2-c2ccc(F)cc2)c(Cl)c1 [3-chloro-4-({[5-{1-[4-chloro-3-(methyloxy)phenyl]-1-methylethyl}-1-(4-fluorophenyl)-1H-imidazol-2-yl]thio}methyl)-N-[({(2R)-2-[(methyloxy)methyl]pyrrolidin-1-yl}amino)carbonyl]benzenesulfonamide]
EC50 (human TGR5 (h-TGR5)): 0.1 to 1 µM
EC50 (h-TGR5): 0.1 to 1 µM

COc1cc(C(C)(C)c2cnc(SCc3ccc(S(=O)(=O)NC(=O)NC(C)C)cc3Cl)n2-c2ccc(F)cc2)ccc1Cl [3-chloro-4-({[5-{1-[4-chloro-3-(methyloxy)phenyl]-1-methylethyl}-1-(4-fluorophenyl)-1H-imidazol-2-yl]thio}methyl)-N-{[(1-methylethyl)amino]carbonyl} benzenesulfonamide]
EC50 (human TGR5 (h-TGR5)): 0.1 to 1 µM
EC50 (h-TGR5): < 0.1 µM

COc1cc(C(C)(C)c2cnc(SCc3ccc(S(=O)(=O)NC(=O)NCC(C)(C)O)cc3Cl)n2-c2ccc(F)cc2)ccc1Cl [3-chloro-4-({[5-{1-[4-chloro-3-(methyloxy)phenyl]-1-methylethyl}-1-(4-fluorophenyl)-1H-imidazol-2-yl]thio}methyl)-N-{[(2-hydroxy-2-methylpropyl)amino]carbonyl} benzenesulfonamide]
EC50 (human TGR5 (h-TGR5)): 0.1 to 1 µM
EC50 (h-TGR5): 0.1 to 1 µM

COc1cc(C(C)(C)c2cnc(SCc3ccc(S(=O)(=O)NC(=O)NN4CCN(C)CC4)cc3Cl)n2-c2ccc(F)cc2)ccc1Cl [3-chloro-4-({[5-{1-[4-chloro-3-(methyloxy)phenyl]-1-methylethyl}-1-(4-fluorophenyl)-1H-imidazol-2-yl]thio}methyl)-N-{[(4-methylpiperazin-1-yl)amino]carbonyl} benzenesulfonamide]
EC50 (human TGR5 (h-TGR5)): 0.1 to 1 µM
EC50 (h-TGR5): 0.1 to 1 µM

COc1cc(C(C)(C)c2c(C)nc(SCc3c(F)cc(C(=O)O)cc3Cl)n2-c2ccc(F)cc2)ccc1Cl [3-chloro-4-({[5-{1-[4-chloro-3-(methyloxy)phenyl]-1-methylethyl}-1-(4-fluorophenyl)-4-methyl-1H-imidazol-2-yl]thio}methyl)-5-fluorobenzoic acid]
EC50 (human TGR5 (h-TGR5)): 0.1 to 1 µM
EC50 (h-TGR5): < 0.1 µM

COc1cc(C(C)(C)c2cnc(SCc3ccc(S(=O)(=O)NC(=O)NN4CCCC4)cc3Cl)n2-c2cc(C)c(F)cn2)ccc1Cl [3-chloro-4-({[5-{1-[4-chloro-3-(methyloxy)phenyl]-1-methylethyl}-1-(5-fluoro-4-methylpyridin-2-yl)-1H-imidazol-2-yl]thio}methyl)-N-[(pyrrolidin-1-ylamino)carbonyl]benzenesulfonamide]
EC50 (human TGR5 (h-TGR5)): 0.1 to 1 µM
EC50 (h-TGR5): 1 to 10 µM

COc1cc(C(C)(C)c2cnc(SCc3c(F)cc(C(=O)O)cc3Cl)n2-c2ccc(F)cn2)ccc1Cl [3-chloro-4-({[5-{1-[4-chloro-3-(methyloxy)phenyl]-1-methylethyl}-1-(5-fluoropyridin-2-yl)-1H-imidazol-2-yl]thio}methyl)-5-fluorobenzoic acid]
EC50 (human TGR5 (h-TGR5)): < 0.1 µM
EC50 (h-TGR5): < 0.1 µM

COc1cc(C(C)(C)c2cnc(SCc3ccc(S(=O)(=O)NC(=O)NN4CCCC4)cc3Cl)n2-c2ccc(F)cn2)ccc1Cl [3-chloro-4-({[5-{1-[4-chloro-3-(methyloxy)phenyl]-1-methylethyl}-1-(5-fluoropyridin-2-yl)-1H-imidazol-2-yl]thio}methyl)-N-[(pyrrolidin-1-ylamino)carbonyl]benzenesulfonamide]
EC50 (human TGR5 (h-TGR5)): 0.1 to 1 µM
EC50 (h-TGR5): 0.1 to 1 µM

COc1cc(C(C)(C)c2cnc(SCc3ccc(S(=O)(=O)NC(=O)NN4CCCC4)cc3Cl)n2-c2ccc(F)cc2)ccc1F [3-chloro-4-({[5-{1-[4-fluoro-3-(methyloxy)phenyl]-1-methylethyl}-1-(4-fluorophenyl)-1H-imidazol-2-yl]thio}methyl)-N-[(pyrrolidin-1-ylamino)carbonyl]benzenesulfonamide]
EC50 (human TGR5 (h-TGR5)): 0.1 to 1 µM
EC50 (h-TGR5): 0.1 to 1 µM

CC(C)(c1ccc(F)c(F)c1)c1cnc(SCc2ccc(S(=O)(=O)NC(=O)NN3CCCC3)cc2Cl)n1-c1ccc(F)cc1F [3-chloro-4-[({1-(2,4-difluorophenyl)-5-[1-(3,4-difluorophenyl)-1-methylethyl]-1H-imidazol-2-yl}thio)methyl]-N-[(pyrrolidin-1-ylamino)carbonyl]benzenesulfonamide]
EC50 (human TGR5 (h-TGR5)): 0.1 to 1 µM
EC50 (h-TGR5): 1 to 10 µM

CC(C)(c1ccc(F)c(F)c1)c1cnc(SCc2ccc(S(=O)(=O)NC(=O)NN3CCCC3)cc2Cl)n1-c1ccc(F)c(F)c1 [3-chloro-4-[({1-(3,4-difluorophenyl)-5-[1-(3,4-difluorophenyl)-1-methylethyl]-1H-imidazol-2-yl}thio)methyl]-N-[(pyrrolidin-1-ylamino)carbonyl]benzenesulfonamide]
EC50 (human TGR5 (h-TGR5)): 0.1 to 1 µM
EC50 (h-TGR5): 1 to 10 µM

CC(C)(c1ccc(F)c(F)c1)c1cnc(SCc2ccc(S(=O)(=O)NC(=O)NN3CCCC3)cc2Cl)n1-c1ccc(F)c(Cl)c1 [3-chloro-4-[({1-(3-chloro-4-fluorophenyl)-5-[1-(3,4-difluorophenyl)-1-methylethyl]-1H-imidazol-2-yl}thio)methyl]-N-[(pyrrolidin-1-ylamino)carbonyl]benzenesulfonamide]
EC50 (human TGR5 (h-TGR5)): 0.1 to 1 µM
EC50 (h-TGR5): 1 to 10 µM
